Patent publication US10159256B2, “Organic pruning wound composition” (The Regents of the University of California, priority 2014, dated 2018)

What was measured:
Test in all cases: Micro- and macronutrients tested against trunk disease fungi
Conditions in all cases: among all micro- and macronutrients tested
[1] = test system: P. viticola
From the text: (§1) However, these products are not registered as organic products, leaving organic growers with no alternatives for controlling trunk diseases.

[2] = test system: Pa. chlamydospora
From the text: as §1

[3] = test system: Pm. Alephilum
From the text: as §1

[4] = test system: D. seriata
From the text: as §1

[5] = test system: E. lata
From the text: as §1

[B] [boron (B), boron]
most effective: effectiveness against P. viticola [1] | effectiveness against Pa. chlamydospora [2] | effectiveness against Pm. Alephilum [3] | effectiveness against D. seriata [4] | effectiveness against E. lata [5]

[Zn] [zinc (Zn), zinc]
most effective: effectiveness against P. viticola [1] | effectiveness against Pa. chlamydospora [2] | effectiveness against Pm. Alephilum [3] | effectiveness against D. seriata [4] | effectiveness against E. lata [5]
